Measurements reported in US20040248739A1, “Pyridylpropynyloxyphenyl derivatives for use as herbicides” (priority 2001, published 2004).

Tests used:
Assay type in all cases: in vivo
Veronica [1] = test: Post-emergence herbicidal action (Example B2); conditions: post-emergence (2- to 3-leaf stage), 1000 g of active ingredient/ha, after 2 to 3 weeks, scale of nine ratings
Protocol: (§1) Monocotyledonous and dicotyledonous test plants are sown in standard soil in pots. When the test plants are at the 2- to 3-leaf stage, the test compounds, in the form of an aqueous suspension (prepared from a wettable powder (Example F3, b) according to WO 97/34485) or in the form of an emulsion (prepared from an emulsifiable concentrate (Example F1, c) according to WO 97/34485), are applied by spraying in an optimum concentration (500 litres of water/ha). The test plants are then grown on in a greenhouse under optimum conditions. After a test duration of 2 to 3 weeks, the test is evaluated in accordance with a scale of nine ratings (1=total damage, 9=no action). Ratings of from 1 to 4 (especially from 1 to 3) indicate good to very good herbicidal action. Test plants: Panicum, Euphorbia, Amaranthus, Chenopodium, Stellaria, Veronica.

Euphorbia = test: Post-emergence herbicidal action (Example B2); conditions: post-emergence (2- to 3-leaf stage), 1000 g of active ingredient/ha, after 2 to 3 weeks, scale of nine ratings
Protocol: as §1

Stellaria [2] = test: Post-emergence herbicidal action (Example B2); conditions: post-emergence (2- to 3-leaf stage), 1000 g of active ingredient/ha, after 2 to 3 weeks, scale of nine ratings
Protocol: as §1

Panicum = test: Pre-emergence herbicidal action (Example B1); conditions: 1000 g of active ingredient/ha, after 4 weeks, scale of nine ratings
Protocol: as §1, with “Immediately after sowing,” for “When the test plants are at the 2- to 3-leaf stage,”, “grown” for “grown on”, “4” for “2 to 3”, “Echinochloa (Ds),” for “Euphorbia,”

Echinochloa (Ds) = test: Pre-emergence herbicidal action (Example B1); conditions: 1000 g of active ingredient/ha, after 4 weeks, scale of nine ratings
Protocol: as §1, with “Immediately after sowing,” for “When the test plants are at the 2- to 3-leaf stage,”, “grown” for “grown on”, “4” for “2 to 3”, “Echinochloa (Ds),” for “Euphorbia,”

Veronica [3] = test: Pre-emergence herbicidal action (Example B1); set-up: key: 1=total damage; 9=no action; Ratings of from 1 to 4 (especially from 1 to 3) indicate good to very good herbicidal action; conditions: 1000 g of active ingredient/ha, after 4 weeks, scale of nine ratings
Protocol: as §1, with “Immediately after sowing,” for “When the test plants are at the 2- to 3-leaf stage,”, “grown” for “grown on”, “4” for “2 to 3”, “Echinochloa (Ds),” for “Euphorbia,”

Amaranthus [4] = test: Pre-emergence herbicidal action (Example B1); set-up: key: 1=total damage; 9=no action; Ratings of from 1 to 4 (especially from 1 to 3) indicate good to very good herbicidal action; conditions: 1000 g of active ingredient/ha, after 4 weeks, scale of nine ratings
Protocol: as §1, with “Immediately after sowing,” for “When the test plants are at the 2- to 3-leaf stage,”, “grown” for “grown on”, “4” for “2 to 3”, “Echinochloa (Ds),” for “Euphorbia,”

Stellaria [5] = test: Pre-emergence herbicidal action (Example B1); set-up: key: 1=total damage; 9=no action; Ratings of from 1 to 4 (especially from 1 to 3) indicate good to very good herbicidal action; conditions: 1000 g of active ingredient/ha, after 4 weeks, scale of nine ratings
Protocol: as §1, with “Immediately after sowing,” for “When the test plants are at the 2- to 3-leaf stage,”, “grown” for “grown on”, “4” for “2 to 3”, “Echinochloa (Ds),” for “Euphorbia,”

Chenopodium [6] = test: Pre-emergence herbicidal action (Example B1); set-up: key: 1=total damage; 9=no action; Ratings of from 1 to 4 (especially from 1 to 3) indicate good to very good herbicidal action; conditions: 1000 g of active ingredient/ha, after 4 weeks, scale of nine ratings
Protocol: as §1, with “Immediately after sowing,” for “When the test plants are at the 2- to 3-leaf stage,”, “grown” for “grown on”, “4” for “2 to 3”, “Echinochloa (Ds),” for “Euphorbia,”

Amaranthus [7] = test: Post-emergence herbicidal action (Example B2); set-up: key: 1=total damage; 9=no action; Ratings of from 1 to 4 (especially from 1 to 3) indicate good to very good herbicidal action; conditions: post-emergence (2- to 3-leaf stage), 1000 g of active ingredient/ha, after 2 to 3 weeks, scale of nine ratings
Protocol: as §1

Chenopodium [8] = test: Post-emergence herbicidal action (Example B2); set-up: key: 1=total damage; 9=no action; Ratings of from 1 to 4 (especially from 1 to 3) indicate good to very good herbicidal action; conditions: post-emergence (2- to 3-leaf stage), 1000 g of active ingredient/ha, after 2 to 3 weeks, scale of nine ratings
Protocol: as §1

COc1cc(F)ccc1OCC#Cc1ccc(Cl)nc1 [1.004, 2-Chloro-5-[3-(4-fluoro-2-methoxy-phenoxy)-prop-1-ynyl]-pyridine]
1: Veronica, herbicidal rating (Veronica [3]) | Amaranthus, herbicidal rating (Amaranthus [4]) | Stellaria, herbicidal rating (Stellaria [5]) | Chenopodium, herbicidal rating (Chenopodium [6]) | Amaranthus, herbicidal rating (Amaranthus [7]) | Chenopodium, herbicidal rating (Chenopodium [8])
2: Veronica, herbicidal rating (Veronica [1]) | Euphorbia, herbicidal rating (Euphorbia) | Stellaria, herbicidal rating (Stellaria [2]) | Panicum, herbicidal rating (Panicum) | Echinochloa (Ds), herbicidal rating (Echinochloa (Ds))
